Source: PMC6321117, “Sulfonamide Inhibition Studies of a New β-Carbonic Anhydrase from the Pathogenic Protozoan Entamoeba histolytica” (International Journal of Molecular Sciences, 2018)
pKi: −log10 of the molar value. Where two headings read alike, the source gives them in different places.

Key:
hCA I = conditions: human recombinant isozyme, α class, stopped flow CO2 hydrase assay; cited from earlier work
[1] = biological target: T1, EhiCA (β-carbonic anhydrase) (Entamoeba histolytica, UniProt C4LXK3); test: biochemical
T1 sequence (C4LXK3 1-188): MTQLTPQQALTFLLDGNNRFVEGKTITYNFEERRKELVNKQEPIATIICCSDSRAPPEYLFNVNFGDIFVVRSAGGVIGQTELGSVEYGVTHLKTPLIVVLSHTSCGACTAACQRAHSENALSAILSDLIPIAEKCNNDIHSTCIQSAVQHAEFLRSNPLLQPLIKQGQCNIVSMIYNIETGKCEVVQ
Description: An Sx.18Mv-R Applied Photophysics (Oxford, UK) stopped-flow instrument has been used to assay the catalytic activity of various CA isozymes for CO2 hydration reaction. […] The uncatalyzed rates were determined in the same manner and subtracted from the total observed rates. Stock solutions of inhibitors (0.1 mM) were prepared in distilled-deionized water, and dilutions up to 1 nM were done thereafter with the assay buffer. Enzyme and inhibitor solutions were pre-incubated together for 15 min before assay, to allow for the formation of the enzyme–inhibitor complex. The inhibition constants were obtained by non-linear least-squares methods using PRISM 3 and the Cheng–Prusoff equation, as reported earlier.

For `Cc1ccc(S(N)(=O)=O)cc1` [Compound 4], the pKi (hCA I) is given as 4.11.
Compound `CC1(C)O[C@@H]2[C@@H](CO[C@@]3(COS(N)(=O)=O)OC(C)(C)O[C@@H]23)O1` [TPM, topiramate] has a pKi ([1]; KI EhiCA, β class, stopped-flow CO2 hydrase assay, 3 different assays, errors 5–10%) of 5.51.
`NS(=O)(=O)c1cc(Cl)c(Cl)c(S(N)(=O)=O)c1` [DCP, dichlorophenamide] showed a pKi [1] of 6.10.
In the case of `NS(=O)(=O)c1cccc(S(N)(=O)=O)c1` [Compound 3], the pKi (hCA I) is given as 7.10.
For `O=C1NS(=O)(=O)c2ccccc21` [SAC, saccharin], the pKi (hCA I) is listed as 4.73.
For `NS(=O)(=O)c1ccc(C(=O)O)cc1` [Compound 18, 4-carboxy-benzenesulfonamide], the pKi [1] was 6.42.
Compound `Nc1ccc(S(N)(=O)=O)cc1` [Compound 2] has a pKi [1] of 5.22.
